In ChEMBL document CHEMBL1201862, “PubChem BioAssay data set” (2004):
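Tested at 5 concentrations; 48 h exposure; 96-well plates; endpoints linearly interpolated, else capped at highest concentration. GI50 marks 50% less growth.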 Calls of active or inactive are those of the source. Rule as the data show it: active = GI50 up to about 1.1 µM and inactive = higher.

Experiments:
Test in all cases: growth of human tumour cells (NCI), 48 h
[1] = tested on: SF-295
[2] = tested on: RPMI-8226
[3] = tested on: HCT-116
[4] = tested on: MDA-N
[5] = tested on: SW-620
[6] = tested on: RXF 393
[7] = tested on: A549
[8] = tested on: OVCAR-8
[9] = tested on: OVCAR-5
[10] = tested on: BT-549
[11] = tested on: NCI-H23
[12] = tested on: ACHN
[13] = tested on: EKVX
[14] = tested on: Malme-3M
[15] = tested on: MCF7
[16] = tested on: MOLT-4
[17] = tested on: SNB-75
[18] = tested on: HT-29
[19] = tested on: HOP-92

Measured: GI50

CC(C)=CCCC1(Sc2ccccc2)C(=O)OCC1C=C(C)C (configuration not stated)
inactive: [1] 36.7 µM | [2] 21.5 µM | [3] 11.5 µM | [4] 19.9 µM | [5] 61.9 µM | [6] 17.1 µM | [7] 13.5 µM | [8] 30.5 µM | [9] 21.3 µM | [10] 36.3 µM | [11] 31.3 µM | [12] 32.5 µM | [13] 19 µM | [14] 17.5 µM | [15] 38.9 µM | [16] 7.31 µM | [17] 36.6 µM

CC(C)CCC[C@@H](C)[C@H]1CC[C@H]2[C@@H]3CC[C@H]4C[C@H](N)CC[C@]4(C)[C@H]3CC[C@]12C
inactive: [1] 19.3 µM | [2] 20.7 µM | [3] 30.1 µM | [4] 30.9 µM | [5] 31.6 µM | [6] 22.2 µM | [7] 16.9 µM | [8] 24.4 µM | [18] 18.3 µM | [9] 15.4 µM | [10] 23.1 µM | [11] 26.1 µM | [12] 17.5 µM | [13] 17.7 µM | [14] 17.2 µM | [15] 23.8 µM | [16] 11.3 µM | [19] 11.7 µM | [17] 18.5 µM

OC1OC(c2ccc[nH]2)C(F)(F)C(F)(F)C1(F)F (configuration not stated)
inactive: [1] > 100 µM | [2] > 100 µM | [3] > 100 µM | [4] > 100 µM | [5] > 100 µM | [6] > 100 µM | [7] > 100 µM | [8] > 100 µM | [18] > 100 µM | [9] > 100 µM | [10] > 100 µM | [12] > 100 µM | [13] > 100 µM | [14] > 100 µM | [15] > 100 µM | [16] > 100 µM | [19] 68.4 µM | [17] 60.8 µM

C=C[C@H]1CN2CC[C@H]1C[C@@H]2[C@@H](O)c1ccnc2ccccc12 [CINCHONINE]
inactive: [1] > 100 µM | [2] 22.9 µM | [3] > 100 µM | [4] > 100 µM | [5] > 100 µM | [6] > 100 µM | [7] > 100 µM | [8] > 100 µM | [18] 46.8 µM | [9] > 100 µM | [10] > 100 µM | [11] > 100 µM | [12] > 100 µM | [13] 73.3 µM | [14] > 100 µM | [15] > 100 µM | [16] > 100 µM | [17] 22.8 µM

C1CNOCCCONCCCNOCCCONC1
inactive: [1] 93.1 µM | [3] > 100 µM | [4] > 100 µM | [5] > 100 µM | [6] 20.2 µM | [7] 91.8 µM | [8] 60.7 µM | [18] > 100 µM | [9] > 100 µM | [10] 69.5 µM | [11] > 100 µM | [12] > 100 µM | [13] 50.2 µM | [14] 30.1 µM | [15] 37.5 µM | [16] > 100 µM | [19] 26.1 µM | [17] > 100 µM

S=C(N/N=C\C(=N/NC(=S)N1CCCCC1)c1ccccc1)N1CCCCC1
inactive: [1] 2.01 µM | [2] 46.1 µM | [3] 2.3 µM | [4] 2.89 µM | [5] 2 µM | [6] 1.85 µM | [7] 2.28 µM | [18] 2.23 µM | [9] 1.88 µM | [10] 1.88 µM | [11] 2.42 µM | [12] 1.69 µM | [13] 1.97 µM | [14] 1.91 µM | [15] 2.81 µM | [19] 2.38 µM | [17] 2.1 µM
